We go through five molecules from US20180028681A1, “COMBINATION THERAPY USING A CD19-ADC AND VINCRISTINE” (SEATTLE GENETICS, INC., priority 2015, published 2018).

Test [1] has as its system ALL patient donor 06343 xenograft. Nature of the test: Disease burden (blast cells) in bone marrow, patient-derived ALL xenograft donor 06343. The format is in vivo, mouse. Particulars: for Disease Burden in Bone Marrow, CD45/10% Mean: NOD-scid IL2Rγ null mice, dosed at 38% blasts in sentinels, bone marrow counts day 14 post-dose. The text has this:
Establishment of patient-derived xenografts: NOD-scid IL2Rγ null mice were used as hosts for patient-derived xenografts. Twenty-four hours prior to cell implant, mice received 1.0 Gy irradiation using a Radsource 2000 irradiator (Radsource technologies, Suwanee, Ga.). Frozen bone marrow isolates of mononuclear cells from patients with acute lymphoblastic leukemia were obtained from […] (Alameda, Calif.). Cells were thawed in a warm water bath. After thaw, RPMI-1640 media was slowly added to the bone marrow isolate suspension. The cells were washed with PBS and centrifuged to remove DMSO in freezing media. After centrifugation, the cells were suspended in PBS. For, implantation, 3.6×10^6 cells were injected into the tail vein of female NOD-scid IL2Rγ null mice designated as donor, or passage 0 mice. Approximately 7 weeks after implant, mice were euthanized. Bone marrow and spleen were collected using sterile technique. Spleens were mechanically disrupted using a sterile syringe end and mesh filter. Connective tissues from spleens were filtered out using 40um filters. Splenocytes and bone marrow cells were treated with red blood cell buffer lysis (BD lysis buffer, BD biosciences, San Jose, Calif.) for 15 minutes at room temperature. A sample of the cells was utilized for confirmation of engraftment. The percentage of blast cells was determined by the number of CD45 FITC, CD19 PE-Cy.5 (BD Biosciences, San Jose, Calif.) CD10 APC (Biolegend, San Diego, Calif.) triple positive cells via flow cytometry (FACScalibur, BD Biosciences, San Jose, Calif.). The majority of the cells (passage 1) were placed into freezing media (90% Heat inactivated fetal bovine serum and 10% DMSO). Subsequent xenograft experiments utilized passage 1 cells. Cells were implanted in the same manner done for donor mice (passage 0 mice). Starting 14-21 days post implant, 2-3 sentinel mice were euthanized to determine the percentage blast cells in the bone marrow. Once the percentage of blast cells was at 25-50% of the bone marrow mononuclear cells mice were randomly placed into treatment groups. SGN-CD19A and non-specific ADC (also called h00-1269) were administered as a single intraperitoneal injection at 1.0, 3.0, or 10.0 mg/kg dose. Cyclophosphamide at 15 or 30 mg/kg (Baxter, Deefield, Ill.), Vincristine at 0.188 or 0.375 mg/kg (Hospira, Lake Forest, Ill.), and Doxorubicin at 1.24 or 2.475 mg/kg (Pfizer, NY, NY) were combined and administered as a single dose via intravenous injection into the lateral tail vein. Dexamethasone at 7.5 or 15 mg/kg (APP Pharmaceuticals, Schaumberg, Ill.) was given daily via intraperitoneal injection for five days. At pre-determined times post treatment, mice were euthanized for collection of bone marrow and determination of blast cell percentage via flow cytometry.
The response of human patient-derived ALL cells to single agent SGN-CD19A or CVAD was determined in mouse xenograft models. Bone marrow isolates from patients with ALL (donor 06343 and donor 90811) were used to establish xenografts in NOD-scid IL2Rgamma^null mice. After engraftment, patient-derived bone marrow cells were frozen and are referred to as passage 1 cells. Passage 1 cells were implanted into mice and assessed for presence of blast cells (CD45/CD10/CD19 positive cells). After blast cells were between 25-50% of the bone marrow, mice were placed in treatment groups (n=3 mice per time point). Mice were given either 1, 3, or 10 mg/kg of SGN-CD19A or 10 mg/kg of a non-specific ADC conjugated to MMAF (also called h00-1269). A maximum tolerated dose (MTD) of CVAD had previously been determined in the same mouse strain. Mice were given either CVAD at the MTD or at 50% of the MTD.
The response of human patient-derived ALL cells to the combination of SGN-CD19A and CVAD was also determined in the mouse xenograft model. Patient samples were engrafted as described above.
A general note: In xenograft studies the graft and the host belong to different species.

In test [2] the test system is NALM6 cells. The test is described as follows: In vitro cytotoxicity (CellTiter-Glo) on NALM6 cells. The format is cell-based. Particulars: 96 hours, minimally/low effective dose used for the combination. How it is done:
Isobolograms: Cells were plated at 5000 per well in 384 well plates using Fluid-X liquid handler (Fluid-X, Boston, Mass.). SGN-CD19A and Vincristine were plated separately and serial diluted in 2×96 well plates per drug. SGN-CD19A and Vincristine were added to 384 well plates, either alone or in combination at range above and below the IC50 for each single agent using the Hamilton STAR automation robotics (Hamilton, Reno, Nev.). Cells were kept at 37° C. for 96 hours. Cell viability readout was performed using the CellTiter-Glo assay (Promega, Madison, Wis.). Luminescence was measured using the Envision plate reader (Perkin Elmer, Waltham, Mass.). Activity was determined by the luminescence of treated cells compared to that of untreated cells.
To verify the results of the in vivo SGN-CD19A plus vincristine or SGN-CD19A plus doxorubicin combinations, in vitro cytotoxicity experiments were performed. […] The concentration of each agent was serially diluted to include doses that would have no cytotoxicity to doses that would kill all cells. […] NALM-6 cells were also incubated with a combination of SGN-CD19A and doxorubicin, in a similar manner.
(In ATP-based viability assays light output follows the ATP content of the culture.)

Take `C[C@@H]1C[C@H]2[C@@H]3CCC4=CC(=O)C=C[C@]4(C)[C@@]3(F)[C@@H](O)C[C@]2(C)[C@@]1(O)C(=O)CO` [Dexamethasone]: the “Disease Burden in Bone Marrow, CD45/10% Mean” value (“Disease Burden … CD45/10% Mean” for short) in test [1] is listed as 82.5%.
As for `O=P1(N(CCCl)CCCl)NCCCO1` (centres unmarked) [Cyclophosphamide], in test [1], the “Disease Burden … CD45/10% Mean” value is recorded as 90%.
Take `CC[C@]1(O)C[C@H]2CN(CCc3c([nH]c4ccccc34)[C@@](C(=O)OC)(c3cc4c(cc3OC)N(C=O)[C@H]3[C@@](O)(C(=O)OC)[C@H](OC(C)=O)[C@]5(CC)C=CCN6CC[C@]43[C@@H]65)C2)C1` [Vincristine]: the “Disease Burden … CD45/10% Mean” value in test [1] is on record as 69.1%. Further, the “cell kill as a single agent” value in test [2] is “approximately 5%”.
As to `COc1cccc2c1C(=O)c1c(O)c3c(c(O)c1C2=O)C[C@@](O)(C(=O)CO)C[C@@H]3O[C@H]1C[C@H](N)[C@H](O)[C@H](C)O1` [Doxorubicin], the “Disease Burden … CD45/10% Mean” value in test [1] was found to be 69.2%. In addition, in test [2], the “cell kill as a single agent” value is listed as “approximately 20%”.

B1: SGN-CD19A: CD19-directed antibody-drug conjugate: humanized antibody hBU12, maleimidocaproyl linker, monomethyl auristatin F (MMAF); average four drugs per antibody (conjugate)
VL: EIVLTQSPATLSLSPGERATLSCSASSSVSYMHWYQQKPGQAPRLLIYDTSKLASGIPARFSGSGSGTDFTLTISSLEPEDVAVYYCFQGSVYPFTFGQGTKLEIKR
VH: QVQLQESGPGLVKPSQTLSLTCTVSGGSISTSGMGVGWIRQHPGKGLEWIGHIWWDDDKRYNPALKSRVTISVDTSKNQFSLKLSSVTAADTAVYYCARMELWSYYFDYWGQGTLVTVSS
For B1, the “Disease Burden … CD45/10% Mean” value in test [1] is on record as 92.5%. Also, in test [1] (SGN-CD19A 1, 3 or 10 mg/kg, CVAD at MTD or 50% of MTD, FIGS. 2A, 2C), the “single agent dose response, blast cells in the bone marrow” value is “decreasing amounts of blast cells in the bone marrow”.
